Earlier results in US20120196889A1, “CATECHOLAMINE DERIVATIVES AND PRODRUGS THEREOF” (H. Lundbeck A/S, priority 2009, published 2012).

Conditions: in man after oral dosing; high hepatic first-pass metabolism

oral bioavailability: ~4%
Compound: CCCc1cc2c(s1)CN[C@@H]1CCc3cc(OC(C)=O)c(OC(C)=O)cc3[C@@H]21 [Adrogolide]
